Experimental data reported in patent US20180238860A1, “INDIVIDUAL METHOD PREDICTIVE OF THE DNA-BREAKING GENOTOXIC EFFECTS OF CHEMICAL OR BIOCHEMICAL AGENTS” (priority 2015, published 2018).

Key:
[1] = test system: pH2AX nuclear foci (DNA double-strand breaks); assay: Single toxicity scale: reference concentration Cref and risk group prediction from NpH2AX(24 h); type: cell-based, human; conditions: for Reference concentration Cref: NpH2AX(24 h) < 2, determined from data of table 4
Experimental: (i) if the reference concentration has not previously been determined by the chemical or biochemical agent to be studied, a cell sample is prepared by dispersion and/or amplification of so-called reference cells (sensitivity group I); a plurality of concentrations within a broad concentration range of said breaking agent (said concentration range ranging for example from nM to mM) is applied for a predetermined period of time (preferably 24 hours) on this cell sample; pH2AX immunofluorescence is performed with DAPI counterstaining which also enables on the same cell sample the analysis of micronuclei for all the concentrations applied.
(ii) Either the mean number of nuclear foci observed with the marker pH2AX at the observation times t and at the concentration C (this mean number being referred to as NpH2AX(t, C)), or the mean number of micronuclei per 100 cells at the observation times t and at the concentration C (this mean number being referred to as NMN(t, C)), or the standard error a corresponding to the error committed on these respective measurements which must be performed on at least 50 nuclei once (Gaussian standard error) or 3 independent experiments of 50 nuclei (standard error of the mean).
(iii) The so-called reference concentration Cref is the concentration giving:
NpH2AX(24 h,Cref)+2σ=2 or indeed NMN(24 h,Cref)+2σ=2%;
If for the cell sample NpH2AX(24 h, Cref)<=2 or NMN(24 h, Cref)<=0.5%, preferably NMN(24 h, Cref)<=1% or even more preferentially NMN(24 h, Cref)<=2%, then the genotoxic risk is considered to be low or described as “Group I”
The experimental data presented in table 4 above were used to determine the reference concentration Cref particularly for Pb(NO3)2 (Cref<1 μM) and CdCl2 (Cref=10 μM).
Table 5 presents numerical examples of correspondence between the single toxicity scale according to the invention and the corresponding clinical signs.

HMEC cells [2] = assay: Micronuclei per 100 cells 24 h after contacting, Table 4 lower part (HMEC); type: cell-based, human; conditions: line cell blank (below Hasp)
Experimental: (§1) In one embodiment, on receipt, the tissue sample (typically the biopsy) is established in the form of an amplifiable cell line without a viral or chemical transformation agent according to an ancillary procedure well known to culture laboratories, as underlined by the publication of Elkind et al. “The radiobiology of cultured mammalian cell”, Gordon and Breach (1967). Once the number of cells is sufficient (typically after 1 to 3 weeks), the first experiments are carried out using the process according to the invention. A cell sample is prepared: The cells are inoculated on glass coverslips in Petri dishes. A portion of these coverslips are contaminated with metals or pesticides or any other DNA-breaking chemical or biochemical agent at different concentrations. A further portion is not contaminated; it represents the spontaneous state. During contamination, the cells remain in the culture incubator at 37° C.
(§2) the cells are fixed in 3% paraformaldehyde and 2% sucrose for 15 minutes at ambient temperature and permeabilized in 20 mM HEPES buffer solution (4-(2-hydroxyethyl)-1-piperazine ethane sulfonic acid) at pH 7.4, 50 mM NaCl, 3 mM MgCl2, 300 mM sucrose, 0.5% Triton X-100 (a non-ionic surfactant having the formula t-Oct-C6H4-(OCH2CH2)×OH where x=9-10, CAS No. 9002-93-1, supplied for example by Sigma Aldrich) for 3 minutes. The glass coverslips are then washed in phosphate buffer saline (known as the acronym PBS) before immunological staining. The incubation took place for 40 min at 37° C. in PBS supplemented with 2% bovine serum albumin (known as the acronym BSA or fraction V, supplied for example by Sigma Aldrich) and was followed by a wash with PBS. Anti-pH2AX primary antibodies are used at a concentration of 1:800. The incubations with anti-mouse FITC or anti-rabbit TRITC secondary antibodies (1:100, supplied by Sigma Aldrich) were performed at 37° C. in 2% BSA for 20 minutes. Glass coverslips were treated with Vectashield™ containing DAPI (4,6-Diamidino-2-phenylindole) to label the nucleus. Staining with DAPI also makes it possible, indirectly, to determine the number of cells in phase G1 (nuclei with homogenous DAPI staining), in phase S (nuclei with numerous pH2AX foci), in phase G2 (nuclei with heterogeneous DAPI staining) and metaphases (visible chromosomes).
(§3) Counterstaining with DAPI (a DNA marker known to those skilled in the art) makes it possible to locate the nucleus to situate the cytoplasmic or nuclear location to quantify the micronuclei, which are complementary cell markers to the data on the foci.
(§4) The tables hereinafter summarize the results of numerous experiments which were carried out as described in the “Detailed description” section above.
(§5) In tables 3 and 4, “pH2AX” corresponds to the mean number of nuclear foci obtained with the marker pH2AX, 24 hours after contacting the cell sample with the chemical agent at the concentration C (NpH2AX(24 h, C)), and where “Micronuclei” corresponds to the mean number of micronuclei observed per 100 cells 24 hours after contacting the cell sample with the chemical agent at the concentration C(NMN(24 h, C)).

humans exposed = conditions: clinical effects observed, cited from earlier work
HMEC cells [3] = assay: pH2AX foci 24 h after contacting, Table 4 lower part (HMEC endothelial cells); type: cell-based, human; conditions: line cell blank (below Hasp), 24 hours after contacting
Experimental: as §1
(§6) For the contaminated cells, characteristics are acquired corresponding to the state after an incubation time with the DNA-breaking chemical or biochemical agent. Said characteristics are represented by foci corresponding to the marker pH2AX. The cells on glass coverslips are then fixed, lysed and hybridized. The following procedure, known per se (Bodgi et al, “A single formula to describe radiation-induced protein relocalization: towards a mathematical definition of individual radiosensitivity”, J Theor Biol. 21 p 333:135-45.2013):
as §2
(§7) The results are acquired using these coverslips on an immunofluorescence microscope (Olympus model for example). The reading may be direct (typically by counting the foci on at least 50 cells in G0/G1 for each point) or using dedicated image analysis software, or on an automated microscope; preferably the software or automated microscope methods are calibrated with manual determinations.
as §4, §5

01PAU cells [4] = assay: pH2AX foci 24 h after contacting, 01PAU; type: cell-based, human
Experimental: as §1, §6
the cells are fixed in 3% paraformaldehyde and 2% sucrose for 15 minutes at ambient temperature and permeabilized in 20 mM HEPES buffer solution (4-(2-hydroxyethyl)-1-piperazine ethane sulfonic acid) at pH 7.4, 50 mM NaCl, 3 mM MgCl2, 300 mM sucrose, 0.5% Triton X-100 (a non-ionic surfactant having the formula t-Oct-C6H4-(OCH2CH2)×OH where x=9-10, CAS No. 9002-93-1, supplied for example by Sigma Aldrich) for 3 minutes. The glass coverslips are then washed in phosphate buffer saline (known as the acronym PBS) before immunological staining. The incubation took place for 40 min at 37° C. in PBS supplemented with 2% bovine serum albumin (known as the acronym BSA or fraction V, supplied for example by Sigma Aldrich) and was followed by a wash with PBS. Anti-pH2AX primary antibodies are used at a concentration of 1:800. […]
as §7, with “determinations. […]” for “determinations.”

01PAU cells [5] = assay: Micronuclei per 100 cells 24 h after contacting, 01PAU; type: cell-based, human
Experimental: as §1, §2, §3
The tables hereinafter summarize the results of numerous experiments which were carried out as described in the “Detailed description” section above. […]

In the case of `O=[N+]([O-])[O-].O=[N+]([O-])[O-].[Pb+2]` [Pb(NO3)2], the “Reference concentration Cref” value [1] is reported as < 1 µM, the “Reference concentration Cref” value ([1]; listed as Lead) is reported as <1 µM and the “Prediction based on algorithm: concentration above which “Group III” risk” value ([1]; NpH2AX(24 h) > 8) is reported as > 30 µM. For the same compound, the Micronuclei (HMEC cells [2]; 10 μM) was 0 per 100 cells, the Micronuclei (HMEC cells [2]; 30 μM) was 7 per 100 cells and the Micronuclei (HMEC cells [2]; 100 μM) was 12 per 100 cells. For the same compound, the Micronuclei (HMEC cells [2]; 300 μM) was 20 per 100 cells, the Micronuclei (HMEC cells [2]; 1000 μM) was 10 per 100 cells and the “Onset of signs of saturnism, concentration in blood” value (humans exposed) was “Onset of signs of saturnism above 100 μg/l of μg/l of blood”. For the same compound, the “Onset of signs of saturnism, corresponding concentration” value (humans exposed; corresponding to 100 μg/l of blood) was “blood corresponding to approximately 2 μM”, the pH2AX (HMEC cells [3]; 10 μM) was 4 foci and the pH2AX (HMEC cells [3]; 30 μM) was 7.5 foci. The pH2AX (HMEC cells [3]; 100 μM) was 15 foci and the pH2AX (HMEC cells [3]; 300 μM) was 21 foci.

Compound `CC1(C)C(C=C(Cl)Cl)C1C(=O)OCc1cccc(Oc2ccccc2)c1` (stereo not shown) [Permethrin] has a pH2AX (01PAU cells [4]; 0.3 μM) of 0.1 foci, a pH2AX (01PAU cells [4]; 1 μM) of 0.2 foci and a pH2AX (01PAU cells [4]; 5 μM) of 1.3 foci. For the same compound, the pH2AX (01PAU cells [4]; 10 μM) was 1.8 foci, the Micronuclei (01PAU cells [5]; 0.3 μM) was 2 per 100 cells and the Micronuclei (01PAU cells [5]; 1 μM) was 2 per 100 cells. The Micronuclei (01PAU cells [5]; 5 μM) was 4 per 100 cells and the Micronuclei (01PAU cells [5]; 10 μM) was 6 per 100 cells.
